What was measured:
Experiment in all cases: CTG-3D luminescence at 96 h relative to day-0 seeding control (ratio to day 0); higher = more growth / less cytotoxicity; PDxO 3D drug screen, 96 h, CTG-3D normalised to day-0 seeding control.
HCI-025 = system: HCI-025 (organoid from a breast cancer xenograft)
HCI-010 = system: HCI-010 (organoid from a breast cancer xenograft)
HCI-008 = system: HCI-008 (organoid from a HER2-enriched breast cancer xenograft)
HCI-019 = system: HCI-019 (organoid from a triple-negative breast cancer xenograft)

Cc1cc(Nc2ncc(Cl)c(Nc3ccccc3S(=O)(=O)C(C)C)n2)c(OC(C)C)cc1C1CCNCC1 [ceritinib]
CTG-3D luminescence at 96 h
Conditions	12.5 pM	0.00025 µM	0.005 µM	0.1 µM	1 µM	10 µM	100 µM	625 fM
HCI-008, days in culture: 228	1.69	1.81	1.55	1.3	1.15	-0.138	-0.142	1.59
HCI-008, days in culture: 244	1.42	1.74	1.85	1.55	1.47	0.0065	-0.00443	2.17
HCI-010, days in culture: 52	2.34	2.15	2.46	2.54	2.64	-0.0117	-0.0342	2.26
HCI-010, days in culture: 65	1.61	1.61	1.79	1.94	1.83	0.00782	-0.00536	1.74
HCI-010, days in culture: 103	3.59	3.48	3.35	3.68	3.99	0.0149	-0.0118	3.09
HCI-019, days in culture: 110	1.94	1.72	1.21	–	–	–	–	–
HCI-019, days in culture: 131	2.4	3	2.64	–	–	–	–	–
HCI-019, days in culture: 152	2.83	2.4	–	–	–	–	–	–
HCI-025, days in culture: 172	2.83	2.05	3.23	2.01	2.79	0.00721	-0.00729	2.37
HCI-025, days in culture: 209	1.92	1.29	1.23	1.33	1.33	0.628	-0.00366	1.68
HCI-025, days in culture: 218	2.02	1.87	1.86	1.8	1.36	1.48	-0.00328	2.18

Reference: the supplement of paper PMC8882468
